Laboratory results published in PubChem BioAssay (NCI).
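Exposure lasted 48 hours, with cells grown in 96-well plates and compounds tested at five concentrations. TGI denotes the concentration required for complete inhibition of growth.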

What was measured:
Assay in all cases: NCI-60 cell line screen, 48 h
IGROV1 ovarian = tested on: IGROV1 ovarian
DU-145 prostate = tested on: DU-145 prostate
NCI-H460 lung = tested on: NCI-H460 lung
786-0 renal = tested on: 786-0 renal
SF-268 CNS = tested on: SF-268 CNS
HT29 colon = tested on: HT29 colon
CAKI-1 renal = tested on: CAKI-1 renal
HCC-2998 colon = tested on: HCC-2998 colon
HCT-15 colon = tested on: HCT-15 colon
HOP-92 NSCLC = tested on: HOP-92 NSCLC
SF-295 CNS = tested on: SF-295 CNS
NCI-H226 lung = tested on: NCI-H226 lung
SK-MEL-28 melanoma = tested on: SK-MEL-28 melanoma
U251 CNS = tested on: U251 CNS
BT-549 breast = tested on: BT-549 breast
NCI-H522 lung = tested on: NCI-H522 lung
TK-10 renal = tested on: TK-10 renal
KM12 colon = tested on: KM12 colon
HL-60(TB) leukemia = tested on: HL-60(TB) leukemia
MDA-N = tested on: MDA-N
A498 renal = tested on: A498 renal
HOP-62 NSCLC = tested on: HOP-62 NSCLC
M14 melanoma = tested on: M14 melanoma
SNB-19 CNS = tested on: SNB-19 CNS
OVCAR-4 ovarian = tested on: OVCAR-4 ovarian
OVCAR-3 ovarian = tested on: OVCAR-3 ovarian
HS 578T breast = tested on: HS 578T breast
SK-MEL-2 melanoma = tested on: SK-MEL-2 melanoma
MDA-MB-435 = tested on: MDA-MB-435
MDA-MB-231 breast = tested on: MDA-MB-231 breast
OVCAR-8 ovarian = tested on: OVCAR-8 ovarian
A549 NSCLC = tested on: A549 NSCLC
SNB-75 CNS = tested on: SNB-75 CNS
SW-620 colon = tested on: SW-620 colon
NCI/ADR-RES ovarian = tested on: NCI/ADR-RES ovarian
UACC-62 melanoma = tested on: UACC-62 melanoma
NCI-H23 lung = tested on: NCI-H23 lung
MOLT-4 leukemia = tested on: MOLT-4 leukemia
CCRF-CEM leukemia = tested on: CCRF-CEM leukemia
ACHN renal = tested on: ACHN renal
PC-3 prostate = tested on: PC-3 prostate
SR leukemia = tested on: SR leukemia
SN12C renal = tested on: SN12C renal
RXF 393 renal = tested on: RXF 393 renal
SK-OV-3 ovarian = tested on: SK-OV-3 ovarian
MCF7 breast = tested on: MCF7 breast
SF-539 CNS = tested on: SF-539 CNS
COLO 205 colon = tested on: COLO 205 colon
SK-MEL-5 melanoma = tested on: SK-MEL-5 melanoma
UO-31 renal = tested on: UO-31 renal
RPMI-8226 leukemia = tested on: RPMI-8226 leukemia
T-47D breast = tested on: T-47D breast
EKVX NSCLC = tested on: EKVX NSCLC
HCT-116 colon = tested on: HCT-116 colon
LOX IMVI melanoma = tested on: LOX IMVI melanoma
OVCAR-5 ovarian = tested on: OVCAR-5 ovarian
UACC-257 melanoma = tested on: UACC-257 melanoma
MALME-3M melanoma = tested on: MALME-3M melanoma
K-562 leukemia = tested on: K-562 leukemia

Measured: TGI

Cc1ccc(CC(Cc2ccc(C)cc2C(=O)O)C(=O)O)cc1 (stereo unspecified)
not listed: K-562 leukemia
> 100 µM: all other assays above

NCCP(=O)(O)O
not listed: SF-539 CNS
> 100 µM: all other assays above
